Laboratory results taken from article PMC11642486 (International Journal of Molecular Sciences, 2024).
Structures can show the parent of a compound that is named as a salt. Where two headings read alike, the source gives them in different places.

Legend:
[1] = tested on: Primary hippocampal neurons; assay: Cell viability assay (CellTiter-Glo) in neurons; format: cell-based, Wistar rats; conditions: for IC50: concentration diminishing cell viability by 50% vs vehicle
Method: Cell viability was measured at 24, 48, and 72 h of treatment with different drug concentration ranges. For each cellular type, we determined the half-maximal inhibitory concentration (IC50) of each drug.
(§1) Primary hippocampal neurons were obtained from Wistar rats on embryonic day 18. Briefly, embryos were removed from the womb under sterile conditions and decapitated to dissect the brains. Hippocampi were isolated at 4 °C in Hank’s balanced salt solution (HBSS) without calcium and magnesium, supplemented with 10 mM HEPES buffered saline and 100 U/mL of penicillin-streptomycin. The hippocampi were mechanically disaggregated using fire-polished pipettes and plated for 2–4 h in neuronal plating medium composed of minimum essential medium (MEM) enriched with 0.6% D-glucose and 10% horse serum. Neuronal plating medium was replaced by neurobasal medium supplemented with 1X B-27 and 2 mM L-glutamine. Neurons were grown for 7 days prior to the experiments. For the microglial cells, we used the BV-2 immortalized murine cell line. Microglial cells were cultured in Dulbecco’s modified Eagle medium (DMEM) with 4.5 g/L D-glucose, 2 mM L-glutamine, 100 U/mL of penicillin-streptomycin, and 10% heat-inactivated fetal bovine serum. Cells were maintained at 37 °C in a humidified incubator with 5% CO2. All culture media were purchased from Thermo Fisher Scientific (Waltham, MA, USA).
(§2) Neurons and microglia were both seeded at a density of 10,000 cells/well in 96-well plates previously treated with 0.1 mg/mL of poly-L-lysine (Sigma-Aldrich). […] Cell viability was determined at 24, 48, and 72 h. The percentage of viable cells was quantified using the CellTiter-Glo® Luminescent Cell Viability Assay (Promega Biotech Ibérica, Madrid, Spain) following the instructions by the manufacturer. The […] of the cell culture media alone was subtracted as the background from all readings. Cell viability in the drug-treated cells was normalized to their respective vehicle controls. Experiments were repeated three times, each condition in triplicate.
(§3) Statistical analysis was performed using Prism 8 software (GraphPad, Boston, MA, USA). For the cell viability assays, a linear regression analysis was made with logarithmic transformation of the drug concentrations in the X-axis. The coefficient of determination (R²) was calculated as a measurement of the adjustment of the data to the regression model. The Mann–Whitney test was used to compare two different conditions. The Kruskal–Wallis test was used to compare the different concentrations of each drug against the vehicle or LPS. Statistical significance was established at p < 0.05.

neurons [2] = assay: Neuronal apoptosis (TUNEL) induced by conditioned medium of LPS-activated microglia; format: cell-based, Wistar rats; conditions: neurons pre-treated 4 h, then 4 h with supernatant of LPS + drug microglia (48 h)
Method: Given that physiologically, if any of the drugs enter the BBB, both the neurons and microglia will be exposed to them, we decided to study the synergistic effects (direct antioxidant properties in neurons with indirect anti-inflammatory effects in microglia) of the drugs in both cells. […] Representative confocal microscopy images of the apoptosis assay are shown in Supplementary Figure S2.
The apoptosis of neurons was determined using the DeadEnd™ Fluorometric TUNEL System (Promega Biotech Ibérica, Madrid, Spain) following the manufacturer’s instructions. Neurons were seeded on glass coverslips previously treated with 1 mg/mL of poly-L-lysine at a density of 500,000 cells/well. […] Then, the supernatants of 48 h LPS-treated or LPS + drug (at the same drug concentrations as in neurons) microglia cells were added to the neuronal culture and incubated for an additional 4 h. Apoptosis was determined using Leica TCS SP5 confocal microscopy and quantified using ImageJ software. For each experimental condition, five random fields were captured to count the number of positive fluorescent cells (apoptotic) divided by the total number of cells identified by the nuclear fluorescent staining TO-PRO. Each experiment was repeated three times.

Nrf2 [3] = assay: Nrf2 nuclear translocation by immunofluorescence in microglia; format: cell-based, murine; conditions: for Nrf2 activation (nuclear translocation), result in words: 4 h, any tested concentration
Method: as §1
For the immunofluorescence experiments, neurons and microglia were directly seeded on glass coverslips previously treated with 1 mg/mL of poly-L-lysine. […] After the drug treatments, the cells were fixed on ice with 4% paraformaldehyde for 25 min and then permeabilized and blocked using 0.1% Triton X-100 (10 min) and 5% BSA (30 min), respectively. Cells were then incubated overnight with the primary antibodies and 1% BSA at 4 °C. The primary antibodies anti-Nrf2 (ab1375550) and anti-NF-kB p65 (ab16502) (both from Abcam, Cambridge, United Kingdom) were used at 1:200. […] For each experimental condition, five random fields were captured and analyzed using ImageJ software (National Institutes of Health, Maryland, DC, USA). Activation of Nrf2 or NF-kB was defined as nuclear translocation, measured by the increase in the mean fluorescence intensity (MFI) in the nucleus. […]

Nrf2 [4] = assay: Nrf2 nuclear translocation by immunofluorescence in neurons; format: cell-based, Wistar rats; conditions: for lowest concentration inducing nuclear translocation (activation) of Nrf2: significant vs vehicle
Method: as §1
For the immunofluorescence experiments, neurons and microglia were directly seeded on glass coverslips previously treated with 1 mg/mL of poly-L-lysine. […] After the drug treatments, the cells were fixed on ice with 4% paraformaldehyde for 25 min and then permeabilized and blocked using 0.1% Triton X-100 (10 min) and 5% BSA (30 min), respectively. Cells were then incubated overnight with the primary antibodies and 1% BSA at 4 °C. The primary antibodies anti-Nrf2 (ab1375550) and anti-NF-kB p65 (ab16502) (both from Abcam, Cambridge, United Kingdom) were used at 1:200. After washing with PBS, cells were incubated with the fluorophore-conjugated secondary antibody anti-Rabbit IgG Alexa Fluor 488 (Thermo Fisher Scientific) at 1:500 for 1 h at room temperature. Cells were counterstained with the TO-PRO fluorescent dye (Thermo Fisher Scientific) to visualize the cell nuclei. Images were captured using the confocal microscope Leica TCS SP5 (Leica Microsystems, Wetzlar, Germany). For each experimental condition, five random fields were captured and analyzed using ImageJ software (National Institutes of Health, Maryland, DC, USA). Activation of Nrf2 or NF-kB was defined as nuclear translocation, measured by the increase in the mean fluorescence intensity (MFI) in the nucleus. Each experiment was repeated three times.

[5] = tested on: BV-2 immortalized murine cell line (microglia); assay: Cell viability assay (CellTiter-Glo) in microglia; format: cell-based
Method: Cell viability was measured at 24, 48, and 72 h of treatment with different drug concentration ranges. For each cellular type, we determined the half-maximal inhibitory concentration (IC50) of each drug. In neurons, as a non-proliferative primary culture, the IC50 was defined as the drug concentration able to diminish cell viability by 50% with respect to the vehicle-treated control. In microglia, as a proliferative cell line, the IC50 was defined as the drug concentration able of inhibiting by 50% cellular proliferation with respect to the vehicle-treated control.
as §1, §2, §3

neurons [6] = assay: RNA-sequencing of drug-treated neurons; format: cell-based, rat
[7] = 4 h, 30 µM DMF, 30 µM MMF, 6 µM CBD
[8] = 24 h, 30 µM DMF, 30 µM MMF, 6 µM CBD
[9] = Rattus norvegicus, Hippocampal neuron, 24 h, neurons, 24 h, read-out: IC50 (cell viability)
[10] = Rattus norvegicus, Hippocampal neuron, 48 h, neurons, 48 h, read-out: IC50 (cell viability)
[11] = Rattus norvegicus, Hippocampal neuron, 72 h, neurons, 72 h, read-out: IC50 (cell viability)
[12] = neurons, 24 h, read-out: IC50 (cell viability)
[13] = neurons, 72 h, read-out: IC50 (cell viability)
[14] = Mus musculus, Microglia, 24 h, microglia, 24 h, concentration inhibiting cellular proliferation by 50% vs vehicle, read-out: IC50 (cell viability)
[15] = Mus musculus, Microglia, 48 h, microglia, 48 h, concentration inhibiting cellular proliferation by 50% vs vehicle, read-out: IC50 (cell viability)
[16] = Mus musculus, Microglia, 72 h, microglia, 72 h, concentration inhibiting cellular proliferation by 50% vs vehicle, read-out: IC50 (cell viability)

C=C(C)[C@@H]1CCC(C)=C[C@H]1c1c(O)cc(CCCCC)cc1O [CBD, cannabidiol]
IC50 ([1]; Rattus norvegicus, Hippocampal neuron, 24 h, read-out: IC50 (cell viability), neurons, 24 h): 15.1 µM
IC50 ([1]; Rattus norvegicus, Hippocampal neuron, 48 h, read-out: IC50 (cell viability), neurons, 48 h): 13.6 µM
IC50 ([1]; Rattus norvegicus, Hippocampal neuron, 72 h, read-out: IC50 (cell viability), neurons, 72 h): 13 µM
decrease in cell viability ([1]; neurons, 10 µM): around 20%
IC50 ([1]; read-out: IC50 (cell viability), neurons, 24 h): 15 µM
IC50 ([1]; read-out: IC50 (cell viability), neurons, 72 h): 13 µM
effect on neuronal apoptosis, in words (neurons [2]; 7 µM): prevented neuronal apoptosis
Nrf2 activation (nuclear translocation), result in words (Nrf2 [3]): did not produce the activation of Nrf2
Nrf2 nuclear protein levels, fold increase vs vehicle (Nrf2 [4]; 4 h, 5 µM): 4 fold
Nrf2 nuclear protein levels, fold increase vs vehicle (Nrf2 [4]; 4 h, 6 µM): 10 fold
Nrf2 nuclear protein levels, fold increase vs vehicle (Nrf2 [4]; 4 h, 7 µM): 10 fold
Nrf2 nuclear protein levels, fold increase vs vehicle (Nrf2 [4]; 4 h, 8 µM): 4 fold
Nrf2 nuclear protein levels, fold increase vs vehicle (Nrf2 [4]; 4 h, 10 µM): 4 fold
magnitude (peak) of Nrf2 activation, fold change of mean nuclear fluorescence intensity vs vehicle (Nrf2 [4]; 4 h treatment): 10 fold
lowest concentration inducing nuclear translocation (activation) of Nrf2 (Nrf2 [4]; 4 h treatment): 5 µM
IC50 ([5]; Mus musculus, Microglia, 24 h, read-out: IC50 (cell viability), microglia, 24 h, concentration inhibiting cellular proliferation by 50% vs vehicle): 12 µM
IC50 ([5]; Mus musculus, Microglia, 48 h, read-out: IC50 (cell viability), microglia, 48 h, concentration inhibiting cellular proliferation by 50% vs vehicle): 12.2 µM
IC50 ([5]; Mus musculus, Microglia, 72 h, read-out: IC50 (cell viability), microglia, 72 h, concentration inhibiting cellular proliferation by 50% vs vehicle): 11.8 µM
IC50 ([5]; Mus musculus, Microglia, 72 h, read-out: IC50 (cell viability), microglia, all of the studied timepoints (24, 48, 72 h)): ~12 µM
number of differentially expressed genes (DEGs) vs vehicle (neurons [6]; [7]): four
Hmox1 expression vs vehicle (neurons [6]; 24 h, 6 µM CBD): 4.9 log2FC
number of DEGs with strong downregulation (fold change < −1) (neurons [6]; 24 h, 6 µM CBD): eight
number of DEGs with strong upregulation (fold change > 1) (neurons [6]; 24 h, 6 µM CBD): nine
number of downregulated DEGs vs vehicle (neurons [6]; 24 h, 30 µM DMF, 6 µM CBD): 21
number of upregulated DEGs vs vehicle (neurons [6]; 24 h, 30 µM DMF, 6 µM CBD): 12
number of differentially expressed genes (DEGs) vs vehicle (neurons [6]; [8]): 33

COC(=O)/C=C/C(=O)OC [DMF, Dimethyl fumarate]
IC50 [1, 9]: 103 µM
IC50 [1, 10]: 54.5 µM
IC50 [1, 11]: 36.5 µM
decrease in cell viability ([1]; neurons, 30 µM): around 20%
IC50 [1, 12]: ~100 µM
IC50 [1, 13]: 36 µM
effect on neuronal apoptosis, in words (neurons [2]; 10 µM): significantly prevented neuronal apoptosis
effect on neuronal apoptosis, in words (neurons [2]; 30 µM): not at 30 µM
lowest concentration inducing nuclear translocation (activation) of Nrf2 (Nrf2 [3]; 4 h treatment, significant vs vehicle): 10 µM
lowest concentration inducing nuclear translocation (activation) of Nrf2 (Nrf2 [4]; 4 h treatment): 30 µM
IC50 [5, 14]: 37.2 µM
IC50 [5, 15]: 40.8 µM
IC50 [5, 16]: 73.2 µM
IC50 ([5]; microglia, 24 h, concentration inhibiting cellular proliferation by 50% vs vehicle, read-out: IC50 (cell viability)): 37 µM
IC50 ([5]; microglia, 72 h, concentration inhibiting cellular proliferation by 50% vs vehicle, read-out: IC50 (cell viability)): 73 µM
number of DEGs between 24 h and 4 h of treatment (across time) (neurons [6]; 30 µM DMF): 1276
Hmox1 expression vs vehicle (neurons [6]; 4 h, 30 µM DMF): 3.9 log2FC
number of downregulated DEGs vs vehicle (neurons [6]; 4 h, 30 µM DMF): 169
number of upregulated DEGs vs vehicle (neurons [6]; 4 h, 30 µM DMF): 238
number of differentially expressed genes (DEGs) vs vehicle (neurons [6]; [7]): 407
Nfe2l2 expression vs vehicle (neurons [6]; 24 h, 30 µM DMF): 0.94 log2Fc
number of downregulated DEGs vs vehicle (neurons [6]; 24 h, 30 µM DMF, 6 µM CBD): 144
number of upregulated DEGs vs vehicle (neurons [6]; 24 h, 30 µM DMF, 6 µM CBD): 120
Nqo1 expression vs vehicle (neurons [6]; 24 h, 30 µM DMF, 30 µM MMF): 2.3 log2FC
number of differentially expressed genes (DEGs) vs vehicle (neurons [6]; [8]): 264

COC(=O)/C=C/C(=O)O [MMF, monomethyl fumarate]
IC50 [1, 9]: 67.8 µM
IC50 [1, 10]: 42.5 µM
IC50 [1, 11]: 55.6 µM
IC50 [1, 12]: ~65 µM
IC50 [1, 13]: 55 µM
effect on neuronal apoptosis, in words (neurons [2]; 10 µM): also prevented neuronal apoptosis
effect on neuronal apoptosis, in words (neurons [2]; 30 µM): also protected neurons from apoptosis
Nrf2 activation (nuclear translocation), result in words (Nrf2 [3]): did not observe Nrf2 activation
Nrf2 activation (nuclear translocation), result in words (Nrf2 [4]; 4 h, same concentrations as DMF (up to 30 µM)): did not observe the nuclear translocation of Nrf2
IC50 [5, 14]: 49.5 µM
IC50 [5, 15]: 41.7 µM
IC50 [5, 16]: 56.6 µM
IC50 ([5]; Mus musculus, Microglia, 72 h, microglia, all of the studied timepoints (24, 48, 72 h), read-out: IC50 (cell viability)): ~50 µM
number of differentially expressed genes (DEGs) vs vehicle (neurons [6]; [7]): did not produce any significant transcriptomic changes
Nqo1 expression vs vehicle (neurons [6]; 24 h, 30 µM DMF, 30 µM MMF): 0.98 log2FC
number of differentially expressed genes (DEGs) vs vehicle (neurons [6]; [8]): three
Gstp1 expression vs vehicle (neurons [6]; 24 h, 30 µM MMF): 0.66 log2FC
